Data published in US10231985B2, “Compounds and compositions comprising such compounds for the prevention or treatment of dyslipidaemias” (CENTRE NATIONAL DE LA RECHERCHE SCIENTIFIQUE, priority 2013, dated 2019).

Key:
[1] = tested on: phospholipids of the cellular membranes (hem1Δ strain); assay: Fatty acid content of cellular phospholipids (lipid extraction, ESI-MS); assay type: cell-based, Saccharomyces cerevisiae
Experimental: The hem1Δ strain is grown in liquid medium (YPG^A, YPG^+, or YPG^++200 μM compound to be tested) under aerobic conditions, with shaking and at 28° C. for 7 hours, from an initial cell concentration of 2×10^6 cells/ml. At the conclusion of the culture, 10^8 cells are collected in order to carry out a total lipid extraction. After having suspended the cells in 1 ml of distilled water at 4° C., 500 μl of glass beads (Ø 0.6 mm) are added and the whole then undergoes 3 sequences of 20 seconds at 5000 rpm in a shaker (the tubes are kept on ice between each of the 3 sequences). The cell lysate then obtained, supplemented with bead-washing solution (1 ml), is then transferred to a 40 ml glass tube (Corex™) before carrying out the lipid extraction using a 2:1 (v/v) methanol:chloroform ratio. First, 6 ml of methanol is added and the whole is vortexed for 30 seconds and then incubated for 15 minutes at 65° C. Once the mixture cools to room temperature, 3 ml of chloroform is added and then the whole is vortexed again for 30 seconds before allowing the extraction to proceed for 16 hours. Later, the sample is centrifuged for 12 minutes at 10000 g before transferring the supernatant to a new Corex™ tube. After adding 2 ml of chloroform and then 4 ml of distilled water, the whole is vortexed for 30 seconds and then centrifuged for 8 minutes at 3000 g. After removing the resulting upper phase, the lower organic phase is collected in a glass hemolysis tube. Finally, the solvent is evaporated under a stream of nitrogen at 80° C. in order to obtain the total cellular lipid samples.
The total cellular lipid samples are resuspended in 1 ml of dichloromethane while being vortexed for 30 seconds. The whole is deposited on a silica column (BOND ELUT-SI, 100 mg 1 ml) preconditioned successively with 3 ml of methanol and then 2 ml of dichloromethane. The fraction retained by the column is then washed successively with 2 ml of dichloromethane and then 3 ml of acetone. Finally, 2 ml of a 50:45:5 (v/v/v) chloroform/methanol/water mixture is deposited on the column and the phospholipids thus eluted are collected in a glass hemolysis tube. The solvent is evaporated under nitrogen at 80° C. in order to obtain the cellular phospholipid samples.
Once resuspended in 100 μl of the mixture Mix^− (2:1:1 (v/v/v) isopropanol/acetonitrile/water+1% (v/v) triethylamine) or the mixture Mix^+ (2:1:1 (v/v/v) isopropanol/acetonitrile/water+1% (v/v) formic acid), the samples are analyzed by electrospray ionization mass spectrometry (ESI-MS) in negative or positive mode, respectively, and the results obtained are used to analyze the fatty acid content of the various phospholipid species.

[2] = tested on: BRIN-BD11 pancreatic β-cells; assay: Cell viability of palmitic acid-lipointoxicated pancreatic β-cells (propidium iodide, flow cytometry); assay type: cell-based, rat; settings: BRIN-BD11, 200 μM palmitic acid
Experimental: Pancreatic β-cells, BRIN-BD11, were grown under control conditions or in the presence of an exogenous source of saturated fatty acid (200 μM palmitic acid), as described by Dhayal & Morgan (2011), in order to generate lipointoxication conditions, with or without the addition of OAG. A) The proportion of dead cells was estimated in the absence (control) or presence of palmitic acid, for increasing concentrations of OAG. B) eIF2α phosphorylation levels were also analyzed under the various conditions by Western blot, in the presence or absence (Ø) of OAG, and were normalized to total eIF2α.
The lipid species are prepared in ethanol before being complexed with bovine serum albumin (BSA, first depleted of fatty acids) by incubation for 1 hour at 37° C. The palmitic acid stock solution is obtained by adding one volume of ethanol before the whole is heated to 70° C. for homogenization. OAG and LPA solutions are prepared in 100% ethanol at room temperature. For the incubations of mammalian cells, the final BSA and ethanol concentrations in the culture medium are kept at 1% and 0.5% (w/v), respectively.
The rat pancreatic β-cell line (BRIN-BD11) is grown in complete RPMI-1640 medium, containing 11 mM glucose and supplemented with 10% (v/v) fetal calf serum (FCS), 2 mM L-glutamine, 100 U/ml penicillin and 100 μg/ml streptomycin. For each experiment, the cells are first seeded at a density of 0.5×10^5 cells/ml in 6-well plates for 24 hours. Thereafter, the complete medium is replaced by an equivalent lacking FCS but containing the lipid reagents of interest, at the desired concentrations, complexed with BSA. Under the control conditions, identical amounts of BSA and ethanol are then used. […] After incubation on ice for 10 minutes, the samples thus obtained are analyzed by flow cytometry. A Beckman Coulter EPICS XL MCL is used for the quantification, an FL3 channel is used to detect the emissions of the PI intercalated in the DNA, and the analysis is carried out using the EXPO32 ADC software (Applied Cytometry Systems, V 1.1 build 207).

[3] = tested on: hem1Δ yeasts grown under SFA accumulation conditions; assay: Restoration of growth of lipointoxicated hem1Δ yeast; assay type: cell-based, Saccharomyces cerevisiae; settings: after 3 days, increasing concentrations
Experimental: The strain bearing the hem1Δ mutation is grown, under aerobic conditions, with shaking and at 28° C., in liquid YPG^A medium (YPG (1% yeast extract (w/v), 1% peptone (w/v) and 2% glucose (w/v)) supplemented with 80 μg/ml 6-aminolevulinic acid (ALA)). Lipointoxication by saturated fatty acids (SFA) is caused by depletion of unsaturated fatty acids (UFA), the synthesis of which is dependent on the presence of heme (the prosthetic group of the Ole1p enzyme in particular), by transfer to YPG^+ medium (YPG supplemented with 80 μg/ml ergosterol to compensate for the sterol depletion obtained under this condition). Lipointoxication can be induced on solid YPG^+ medium+2% agar (w/v) by transferring 3500 cells (hem1Δ from preculture in YPG^A) per cm^2 or, alternatively, in liquid medium by inoculating 2×10^6 cells/ml YPG^+. Classically, the effects of SFA lipointoxication are analyzed 7 hours after the transfer to YPG^+ medium. The ability of a compound to counter the deleterious effects of SFA lipointoxication, in turn, is evaluated successively to the addition of this compound on (or in) the YPG^+ transfer medium, after seeding with the cells.
Following the induction of SFA lipointoxication (for hem1Δ grown on solid medium) 5 μl drops of solutions of the various compounds at 10 mM in dimethylsulfoxide (DMSO) or ethanol (EtOH) are deposited on the surface of the agar. The ability of a compound to counter the arrest of lipid-induced cell growth is estimated by the appearance of a halo of hem1Δ colonies at the site of the deposition of said compound after 3 days of culture at 28° C. (see Deguil et al., 2011).
Jointly with the induction of SFA lipointoxication (for hem1Δ in liquid medium), the various compounds are added to the cultures at an initial concentration of 200 μM. Proliferation is monitored by spectrometric measurement of cell density, at regular time intervals (every hour over the duration of the observation). At a wavelength of 600 nm, one optical density unit (OD600 nm) corresponds to 2×10^7 cells/ml.

[4] = tested on: QM strain (cells not synthesizing triglycerides); assay: Toxicity test on QM strain (growth inhibition halos); assay type: cell-based, Saccharomyces cerevisiae; settings: 5 μl drops on agar, after three days
Experimental: Drops (5 μl) of OAG, LPA or oleic acid were deposited, from stock solutions at the indicated concentrations, on the surface of an agar medium over which the QM strain had been spread beforehand. […] These halos are, however, not observed in the presence of LPA or of OAG.
In parallel, wild-type (WT) and quadruple mutant (QM) strains are grown, under aerobic conditions, with shaking and at 28° C., in liquid YPG medium before seeding 3500 cells per cm^2 of YPG+2% agar (w/v). Following this transfer to solid medium, 1 μl drops of 1, 10 and 100 mM solutions of the various compounds in DMSO or EtOH are deposited on the agar surface. Separately, DMSO and EtOH are also deposited in order to evaluate the intrinsic toxicity of these two solvents. After 3 days of culture at 28° C., the toxicity of the compounds tested is evaluated by comparing the growth inhibition halo diameters obtained for the depositions of pure solvent with those of the depositions of the various concentrations of the compounds tested. Unlike the WT strain, the QM strain is incapable of buffering excess exogenous oleic acid in the form of neutral lipids (triglycerides (TG) or esterified sterols (ES)) in lipid droplets.

lipase = assay: Resistance to hydrolytic activity of lipases (thin-layer chromatography); assay type: in vitro ADME; settings: 10 U of lipase, 30 minutes, 37° C.
Experimental: OAG (15 μmol) and N,N-diethanololeamide were subjected (+) or not (−) to exposure to 10 U of lipase for 30 minutes at 37° C. Following the incubation, the lipid species were extracted from the samples before being separated by thin-layer chromatography.

| SMILES | Effect on fatty acid composition of membrane phospholipids [1] | Apoptosis / proportion of dead cells of pancreatic β-cells [2] | Restoration of the growth of hem1Δ yeasts [3] | Growth inhibition halos on QM strain [4] | Hydrolysis by lipases (lipase) |
| --- | --- | --- | --- | --- | --- |
| CCCCCCCC/C=C\CCCCCCCC(=O)OCC(CO)(CO)CO [3-hydroxy-2,2-bis(hydroxymethyl)propyl oleate] | without restoring a normal diunsaturated phospholipid composition | prevent apoptosis |  |  |  |
| CCCCCCCC/C=C\CCCCCCCC(=O)O [oleic acid, reference compound] |  |  | restore the growth | growth inhibition halos (absence of colonies) can be observed |  |
| CCCCCCCC/C=C\CCCCCCCC(=O)N(CCO)CCO [N,N-diethanololeamide] | without restoring a normal diunsaturated phospholipid composition | prevent apoptosis |  |  | resists hydrolysis by lipases |
